Here are results for seven molecules from patent publication US20250353891A1 (MEDIMMUNE LIMITED, priority 2022, published 2025).

Test [1] has as its target human glucagon receptor (hGCGR) (Homo sapiens, UniProt P47871). Briefly: cAMP production (HTRF) in CHO cells expressing hGCGR. The note with it: Table 6, peptides modified at position 17; cAMP in CHO hGCGR cells; geometric mean; read-out: hGluc-R EC50. The format is cell-based. More on the design: expressed in transfected cells. An outline of the steps: (§1)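 Read-out: HTRF cAMP (anti-cAMP cryptate donor, cAMP-d2 acceptor in conjugate/lysis buffer), converted to % Delta F and fitted by 4-parameter logistic for EC50. Cell densities were 1×10^5 cells/mL (hGLP-1R) or 2×10^5 cells/mL (hGCGR). Stimulation lasted 30 min at room temperature.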

Test [2] concerns the target human GLP-1 receptor (hGLP-1R) (Homo sapiens, UniProt P43220). The experiment in a line: cAMP production (HTRF) in CHO cells expressing hGLP-1R. Details: expressed in transfected cells. In kind it is cell-based. To be noted: for EC50: Table 6, peptides modified at position 17, cAMP in CHO hGLP-1R cells, geometric mean, read-out: hGLP-1R EC50; for % Relative Potency Ratio: Table 6, % GLP-1R activity relative to GLP-1 / % GlucR activity relative to glucagon. The essentials: as §1

Molecules are shown by their SMILES. Starred links: 1 amine or outer side, 2 acyl side, 3 side chain; linkers in the order of their positions; H or OH if unused. Non-standard residues stand in square brackets, D forms with d. Residues, ends and D or L forms follow the SMILES beside them. Groups on a side chain read outwards from the residue. *: point of attachment. γGlu = O=C(O)[C@H](CCC(=O)[*:2])N[*:1]; Stearoyl = CCCCCCCCCCCCCCCCCC(=O)*; Palmitoyl = CCCCCCCCCCCCCCCC(=O)*; αMeF = C[C@](N)(Cc1ccccc1)C(=O)O; Myristoyl = CCCCCCCCCCCCCC(=O)*; PEG2 = NCCOCCOCCC(=O)O; Aib = CC(C)(N)C(=O)O

Sequence of human glucagon receptor (hGCGR) (P47871 26-477): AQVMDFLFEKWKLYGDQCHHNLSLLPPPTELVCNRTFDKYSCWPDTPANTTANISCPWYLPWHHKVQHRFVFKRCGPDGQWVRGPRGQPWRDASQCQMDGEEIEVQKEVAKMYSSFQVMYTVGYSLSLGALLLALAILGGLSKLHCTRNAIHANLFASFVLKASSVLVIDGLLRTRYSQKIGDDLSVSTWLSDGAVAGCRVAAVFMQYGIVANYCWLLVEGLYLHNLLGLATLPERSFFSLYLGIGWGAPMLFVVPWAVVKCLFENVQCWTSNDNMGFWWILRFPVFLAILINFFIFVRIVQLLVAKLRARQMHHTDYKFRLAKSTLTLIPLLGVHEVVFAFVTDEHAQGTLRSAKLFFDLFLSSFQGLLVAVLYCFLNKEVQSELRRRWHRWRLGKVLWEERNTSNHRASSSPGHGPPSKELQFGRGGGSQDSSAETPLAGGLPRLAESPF
Sequence of human GLP-1 receptor (hGLP-1R) (P43220 24-463): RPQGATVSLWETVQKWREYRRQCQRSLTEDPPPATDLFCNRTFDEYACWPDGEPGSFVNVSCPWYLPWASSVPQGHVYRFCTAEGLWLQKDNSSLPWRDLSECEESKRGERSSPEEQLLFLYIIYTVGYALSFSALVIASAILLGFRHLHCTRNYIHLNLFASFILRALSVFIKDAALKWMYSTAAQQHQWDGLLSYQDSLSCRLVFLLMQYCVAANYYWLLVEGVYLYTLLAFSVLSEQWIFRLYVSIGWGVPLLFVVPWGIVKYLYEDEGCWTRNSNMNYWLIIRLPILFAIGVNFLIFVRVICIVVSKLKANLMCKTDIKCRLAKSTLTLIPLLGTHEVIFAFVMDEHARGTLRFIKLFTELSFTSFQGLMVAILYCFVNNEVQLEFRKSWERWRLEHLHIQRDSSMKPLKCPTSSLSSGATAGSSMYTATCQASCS

Turning to `CCCCCCCCCCCCCCCC(=O)N[C@@H](CCC(=O)N[C@@H](CCC(=O)NCCOCCOCCC(=O)NCCOCCOCCC(=O)NCCCC[C@H](NC(=O)[C@H](CO)NC(=O)[C@H](CC(=O)O)NC(=O)[C@H](CC(C)C)NC(=O)[C@@H](NC(=O)[C@H](CCCCN)NC(=O)[C@H](CO)NC(=O)[C@@H](NC(=O)[C@H](CC(=O)O)NC(=O)[C@H](CO)NC(=O)[C@@H](NC(=O)[C@](C)(Cc1ccccc1)NC(=O)[C@H](CO)NC(=O)CNC(=O)[C@H](CCC(N)=O)NC(=O)[C@H](CO)NC(=O)[C@@H](N)Cc1c[nH]cn1)[C@@H](C)O)C(C)C)[C@@H](C)CC)C(=O)N[C@@H](C)C(=O)N[C@@H](C)C(=O)N[C@@H](CCC(N)=O)C(=O)N[C@@H](CC(=O)O)C(=O)N[C@@](C)(Cc1ccccc1)C(=O)N[C@H](C(=O)N[C@@H](CCC(=O)O)C(=O)N[C@H](C(=O)N[C@H](C(=O)N[C@@H](C)C(=O)N[C@@H](CC(N)=O)C(N)=O)[C@@H](C)CC)[C@@H](C)CC)C(C)C)C(=O)O)C(=O)O` [Peptide 114] (H-HSQGS[αMeF]TSDVSKILDSK([PEG2-PEG2-γGlu-γGlu-Palmitoyl])AAQD[αMeF]VEIIAN-NH2; N-terminus assumed), the concentration giving a half-maximal response (EC50) in test [1] stood at 2.65 pM. Moreover, in test [2], the EC50 was determined as 3.65 pM and the “% Relative Potency Ratio” value is 1.4.

Take `CCCCCCCCCCCCCCCC(=O)N[C@@H](CCC(=O)N[C@@H](CCC(=O)NCCOCCOCCC(=O)NCCOCCOCCC(=O)NCCCC[C@H](NC(=O)[C@H](CO)NC(=O)[C@H](CC(=O)O)NC(=O)[C@H](CC(C)C)NC(=O)[C@@H](NC(=O)[C@H](CCCCN)NC(=O)[C@H](CO)NC(=O)[C@@H](NC(=O)[C@H](CC(=O)O)NC(=O)[C@H](CO)NC(=O)[C@@H](NC(=O)[C@](C)(Cc1ccccc1)NC(=O)[C@H](CO)NC(=O)CNC(=O)[C@H](CCC(N)=O)NC(=O)[C@H](CO)NC(=O)[C@@H](N)Cc1c[nH]cn1)[C@@H](C)O)C(C)C)[C@@H](C)CC)C(=O)N[C@@H](C)C(=O)N[C@@H](C)C(=O)N[C@@H](CCC(N)=O)C(=O)N[C@@H](CC(=O)O)C(=O)N[C@@](C)(Cc1ccccc1)C(=O)N[C@H](C(=O)N[C@@H](CCC(=O)O)C(=O)N[C@@H](Cc1c[nH]c2ccccc12)C(=O)N[C@H](C(=O)N[C@H](C(=O)N[C@@H](CC(N)=O)C(=O)N[C@H](C(N)=O)[C@@H](C)O)[C@@H](C)CC)[C@@H](C)CC)C(C)C)C(=O)O)C(=O)O` [Peptide 116] (H-HSQGS[αMeF]TSDVSKILDSK([PEG2-PEG2-γGlu-γGlu-Palmitoyl])AAQD[αMeF]VEWIINT-NH2; N-terminus assumed): the EC50 in test [1] amounted to 10.3 pM. For the same molecule, in test [2], the EC50 amounted to 24.3 pM and the “% Relative Potency Ratio” value stood at 0.8.

Take `CCCCCCCCCCCCCCCC(=O)N[C@@H](CCC(=O)N[C@@H](CCC(=O)NCCOCCOCCC(=O)NCCOCCOCCC(=O)NCCCC[C@H](NC(=O)[C@H](CO)NC(=O)[C@H](CC(=O)O)NC(=O)[C@H](CC(C)C)NC(=O)[C@@H](NC(=O)[C@H](CCCCN)NC(=O)[C@H](CO)NC(=O)[C@@H](NC(=O)[C@H](CC(=O)O)NC(=O)[C@H](CO)NC(=O)[C@@H](NC(=O)[C@](C)(Cc1ccccc1)NC(=O)[C@H](CO)NC(=O)CNC(=O)[C@H](CCC(N)=O)NC(=O)[C@H](CO)NC(=O)[C@@H](N)Cc1c[nH]cn1)[C@@H](C)O)C(C)C)[C@@H](C)CC)C(=O)N[C@@H](C)C(=O)N[C@@H](C)C(=O)N[C@@H](CCC(N)=O)C(=O)N[C@@H](CC(=O)O)C(=O)N[C@@](C)(Cc1ccccc1)C(=O)N[C@H](C(=O)N[C@@H](CCC(N)=O)C(=O)NC(C)(C)C(=O)N[C@H](C(=O)N[C@H](C(=O)N[C@@H](CC(N)=O)C(=O)N[C@H](C(N)=O)[C@@H](C)O)[C@@H](C)CC)[C@@H](C)CC)C(C)C)C(=O)O)C(=O)O` [Peptide 118] (H-HSQGS[αMeF]TSDVSKILDSK([PEG2-PEG2-γGlu-γGlu-Palmitoyl])AAQD[αMeF]VQ[Aib]IINT-NH2): the EC50 in test [1] was found to be 1.2 pM. Besides, in test [2], the EC50 was 1.07 pM and the “% Relative Potency Ratio” value came out at 2.2.

For the molecule `CCCCCCCCCCCCCC(=O)N[C@@H](CCC(=O)N[C@@H](CCC(=O)NCCOCCOCCC(=O)NCCOCCOCCC(=O)NCCCC[C@H](NC(=O)[C@H](CO)NC(=O)[C@H](CC(=O)O)NC(=O)[C@H](CC(C)C)NC(=O)[C@@H](NC(=O)[C@H](CCCCN)NC(=O)[C@H](CO)NC(=O)[C@@H](NC(=O)[C@H](CC(=O)O)NC(=O)[C@H](CO)NC(=O)[C@@H](NC(=O)[C@](C)(Cc1ccccc1)NC(=O)[C@H](CO)NC(=O)CNC(=O)[C@H](CCC(N)=O)NC(=O)[C@H](CO)NC(=O)[C@@H](N)Cc1c[nH]cn1)[C@@H](C)O)C(C)C)[C@@H](C)CC)C(=O)N[C@@H](C)C(=O)N[C@@H](C)C(=O)N[C@@H](CCC(N)=O)C(=O)N[C@@H](CC(=O)O)C(=O)N[C@@](C)(Cc1ccccc1)C(=O)N[C@H](C(=O)N[C@@H](CCC(N)=O)C(=O)NC(C)(C)C(=O)N[C@H](C(=O)N[C@H](C(=O)N[C@@H](CC(N)=O)C(=O)N[C@H](C(N)=O)[C@@H](C)O)[C@@H](C)CC)[C@@H](C)CC)C(C)C)C(=O)O)C(=O)O` [Peptide 119] (H-HSQGS[αMeF]TSDVSKILDSK([PEG2-PEG2-γGlu-γGlu-Myristoyl])AAQD[αMeF]VQ[Aib]IINT-NH2; N-terminus assumed), the figures for the EC50 in test [1] and in test [2] were 1.7 pM and 1.39 pM, respectively. In test [2], the “% Relative Potency Ratio” value stood at 2.4.

In the case of `CCCCCCCCCCCCCCCCCC(=O)N[C@@H](CCC(=O)NCCOCCOCCC(=O)NCCOCCOCCC(=O)NCCCC[C@H](NC(=O)[C@H](CO)NC(=O)[C@H](CC(=O)O)NC(=O)[C@H](CC(C)C)NC(=O)[C@@H](NC(=O)[C@H](CCCCN)NC(=O)[C@H](CO)NC(=O)[C@@H](NC(=O)[C@H](CC(=O)O)NC(=O)[C@H](CO)NC(=O)[C@@H](NC(=O)[C@](C)(Cc1ccccc1)NC(=O)[C@H](CO)NC(=O)CNC(=O)[C@H](CCC(N)=O)NC(=O)[C@H](CO)NC(=O)[C@@H](N)Cc1c[nH]cn1)[C@@H](C)O)C(C)C)[C@@H](C)CC)C(=O)N[C@@H](C)C(=O)N[C@@H](C)C(=O)N[C@@H](CCC(N)=O)C(=O)N[C@@H](CC(=O)O)C(=O)N[C@@](C)(Cc1ccccc1)C(=O)N[C@H](C(=O)N[C@@H](CCC(N)=O)C(=O)NC(C)(C)C(=O)N[C@H](C(=O)N[C@H](C(=O)N[C@@H](CC(N)=O)C(=O)N[C@H](C(N)=O)[C@@H](C)O)[C@@H](C)CC)[C@@H](C)CC)C(C)C)C(=O)O` [Peptide 120] (H-HSQGS[αMeF]TSDVSKILDSK([PEG2-PEG2-γGlu-Stearoyl])AAQD[αMeF]VQ[Aib]IINT-NH2; N-terminus assumed), the EC50 in test [1] turned out to be 2.62 pM. In addition, in test [2], the EC50 came out at 1.81 pM and the “% Relative Potency Ratio” value came out at 2.9.

As to `CCCCCCCCCCCCCCCC(=O)N[C@@H](CCC(=O)NCCOCCOCCC(=O)NCCOCCOCCC(=O)NCCCC[C@H](NC(=O)[C@H](CO)NC(=O)[C@H](CC(=O)O)NC(=O)[C@H](CC(C)C)NC(=O)[C@@H](NC(=O)[C@H](CCCCN)NC(=O)[C@H](CO)NC(=O)[C@@H](NC(=O)[C@H](CC(=O)O)NC(=O)[C@H](CO)NC(=O)[C@@H](NC(=O)[C@](C)(Cc1ccccc1)NC(=O)[C@H](CO)NC(=O)CNC(=O)[C@H](CCC(N)=O)NC(=O)[C@H](CO)NC(=O)[C@@H](N)Cc1c[nH]cn1)[C@@H](C)O)C(C)C)[C@@H](C)CC)C(=O)N[C@@H](C)C(=O)N[C@@H](C)C(=O)N[C@@H](CCC(N)=O)C(=O)N[C@@H](CC(=O)O)C(=O)N[C@@](C)(Cc1ccccc1)C(=O)N[C@H](C(=O)N[C@@H](CCC(N)=O)C(=O)NC(C)(C)C(=O)N[C@H](C(=O)N[C@H](C(=O)N[C@@H](CC(N)=O)C(=O)N[C@H](C(N)=O)[C@@H](C)O)[C@@H](C)CC)[C@@H](C)CC)C(C)C)C(=O)O` [Peptide 121] (H-HSQGS[αMeF]TSDVSKILDSK([PEG2-PEG2-γGlu-Palmitoyl])AAQD[αMeF]VQ[Aib]IINT-NH2; N-terminus assumed), in test [1], the EC50 came out at 1.2 pM. In test [2], the EC50 came out at 1.5 pM and the “% Relative Potency Ratio” value was 1.6.

Consider `CCCCCCCCCCCCCCCC(=O)N[C@@H](CCC(=O)N[C@@H](CCC(=O)NCCOCCOCCC(=O)NCCOCCOCCC(=O)NCCCC[C@H](NC(=O)[C@H](CO)NC(=O)[C@H](CC(=O)O)NC(=O)[C@H](CC(C)C)NC(=O)[C@@H](NC(=O)[C@H](CCCCN)NC(=O)[C@H](CO)NC(=O)[C@@H](NC(=O)[C@H](CC(=O)O)NC(=O)[C@H](CO)NC(=O)[C@@H](NC(=O)[C@](C)(Cc1ccccc1)NC(=O)[C@H](CO)NC(=O)CNC(=O)[C@H](CCC(N)=O)NC(=O)C(C)(C)NC(=O)[C@@H](N)Cc1c[nH]cn1)[C@@H](C)O)C(C)C)[C@@H](C)CC)C(=O)N[C@@H](C)C(=O)N[C@@H](C)C(=O)N[C@@H](CCC(N)=O)C(=O)N[C@@H](CC(=O)O)C(=O)N[C@@](C)(Cc1ccccc1)C(=O)N[C@H](C(=O)N[C@@H](CCC(N)=O)C(=O)N[C@H](C(=O)N[C@H](C(=O)N[C@@H](C)C(=O)N[C@@H](CC(N)=O)C(N)=O)[C@@H](C)CC)[C@@H](C)CC)C(C)C)C(=O)O)C(=O)O` [Peptide 123] (H-H[Aib]QGS[αMeF]TSDVSKILDSK([PEG2-PEG2-γGlu-γGlu-Palmitoyl])AAQD[αMeF]VQIIAN-NH2; N-terminus assumed), for which the EC50 in test [1] is 12.9 pM. Also, the “% Relative Potency Ratio” value in test [2] is 51.4.
